# The source made the active and inactive calls. The calls are words filed in the database; no cut-off is given here.
# How the values were obtained:
# K562-IMA[r] [1] = assay: Induction of sensitization to imatinib-induced cytotoxicity in imatinib-resistant human K562-IMA[r] cells assessed as induction of cell death at 10 uM after 72 hrs in presence of 1 uM imatinib by propidium iodide/Triton-X100 dye based FACS analysis; format: functional
# K562-IMA[r] [2] = assay: Cytotoxicity against imatinib-resistant human K562-IMA[r] cells assessed as cell death at 10 uM after 72 hrs by propidium iodide/Triton-X100 dye based FACS analysis
# K562-IMA[r] [3] = assay: Induction of sensitization to imatinib-induced cytotoxicity in imatinib-resistant human K562-IMA[r] cells assessed as cell death at 0.1 to 10 uM measured after 72 hrs in presence of 1 uM imatinib by propidium iodide/Triton-X100 dye based FACS analysis; format: functional
# [4] = molecular target: T1, Peroxisome proliferator-activated receptor gamma (Homo sapiens) (UniProt P37231); assay: Transactivation of Gal4-fused human PPARgamma transfected in COS7 cells co-transfected with pGAL5-TK-pGL3 and pRennilla-CMV assessed as maximum intrinsic activation at 10 uM incubated for 39 hrs by dual luciferase reporter assay relative to pioglitazone; format: cell-based
# T1 sequence (whole entry): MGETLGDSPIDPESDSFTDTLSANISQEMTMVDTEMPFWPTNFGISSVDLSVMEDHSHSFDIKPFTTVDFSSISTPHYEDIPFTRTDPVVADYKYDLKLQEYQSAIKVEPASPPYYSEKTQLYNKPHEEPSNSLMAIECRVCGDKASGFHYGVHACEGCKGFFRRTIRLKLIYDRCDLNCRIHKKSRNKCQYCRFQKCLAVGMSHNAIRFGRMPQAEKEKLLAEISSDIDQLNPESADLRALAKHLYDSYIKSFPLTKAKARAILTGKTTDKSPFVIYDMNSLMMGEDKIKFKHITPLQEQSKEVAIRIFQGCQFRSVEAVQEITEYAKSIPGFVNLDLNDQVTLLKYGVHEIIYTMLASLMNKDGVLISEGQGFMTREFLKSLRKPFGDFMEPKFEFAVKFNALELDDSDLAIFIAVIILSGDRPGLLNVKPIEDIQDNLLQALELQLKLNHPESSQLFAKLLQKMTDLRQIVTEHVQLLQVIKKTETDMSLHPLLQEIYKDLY
# [5] = Solubility of compound in water at >20 uM; format: physicochemical; details: buffer
# [6] = molecular target: T1, Peroxisome proliferator-activated receptor gamma (Homo sapiens); assay: Transactivation of Gal4-fused human PPARgamma transfected in COS7 cells co-transfected with pGAL5-TK-pGL3 and pRennilla-CMV assessed as maximum intrinsic activation at 20 uM incubated for 39 hrs by dual luciferase reporter assay; format: cell-based
# K562-IMA[r] [7] = assay: Cytotoxicity against imatinib-resistant human K562-IMA[r] cells assessed as induction of cell death at 10 uM after 72 hrs by propidium iodide/Triton-X100 dye based FACS analysis relative to control
# K562-IMA[r] [8] = assay: Induction of sensitization to imatinib induced cytotoxicity in imatinib-resistant human K562-IMA[r] cells assessed as cell death up to 2.5 uM measured after 72 hrs in presence of 1 uM imatinib by propidium iodide/Triton-X100 dye based FACS analysis; format: functional
# K562-IMA[r] [9] = assay: Induction of sensitization to imatinib-induced cytotoxicity in imatinib-resistant human K562-IMA[r] cells assessed as gain in cell death rate at 5 uM measured after 72 hrs in presence of 1 uM imatinib by propidium iodide/Triton-X100 dye based FACS analysis relative to imatinib-treated control; format: functional
# [10] = Cytotoxicity against human HS5 cells assessed as cell death at 10 uM after 72 hrs by propidium iodide/Triton-X100 dye based FACS analysis
# K562 = assay: Cytotoxicity against human K562 cells assessed as cell death at 10 uM after 72 hrs by propidium iodide/Triton-X100 dye based FACS analysis; details: k562, 72 h
# COS-7 = assay: Cytotoxicity against African green monkey COS7 cells assessed as effect on cell metabolic activity at 20 uM after 72 hrs by MTT assay; format: ADME, cell-based; details: chlorocebus aethiops, cos-7, 72 h
# K562-IMA[r] [11] = assay: Decrease in STAT5 expression in imatinib-resistant human K562-IMA[r] cells at 10 uM after 24 hrs in presence of 1 uM imatinib by Western blot analysis; format: functional, cell-based
# K562-IMA[r] [12] = assay: Induction of sensitization to imatinib-induced cytotoxicity in imatinib-resistant human K562-IMA[r] cells assessed as induction of cell death at 10 uM after 72 hrs in presence of 1 uM imatinib by propidium iodide/Triton-X100 dye based FACS analysis (reference value: 15%); format: functional
# K562-IMA[r] [13] = assay: Induction of sensitization to imatinib-induced cytotoxicity in imatinib-resistant human K562-IMA[r] cells assessed as induction of cell death measured after 72 hrs in presence of 1 uM imatinib by propidium iodide/Triton-X100 dye based FACS analysis; format: functional
# [14] = Solubility of compound in DMSO at 10 uM by microscopic analysis; format: physicochemical
Structure (SMILES),Activity (K562-IMA[r] [1]),Activity (K562-IMA[r] [2]),Activity (K562-IMA[r] [3]),Intrinsic activity [4],solubility [5],Intrinsic activity [6],Activity (K562-IMA[r] [7]),Activity (K562-IMA[r] [8]),Activity (K562-IMA[r] [9]),Activity [10],Activity (K562),Activity (COS-7),Activity (K562-IMA[r] [11]),Activity (K562-IMA[r] [12]),Activity (K562-IMA[r] [13]),solubility [14]
CCc1ccc(CCOc2ccc(CC3SC(=O)NC3=O)cc2)nc1 (centres undefined) [PIOGLITAZONE],Active,Non-Toxic,inactive,,,,,,,,,,,,,
CCCc1nc2ccccc2n1Cc1ccc(-c2ccccc2C(N)=O)cc1,,,,39.5%,Insoluble,inactive,< 20%,inactive,16%,Non-Toxic,Non-Toxic,Non-Toxic,Active,62 - 78%,Dose-dependent effect,Soluble
CCCc1nc2c(Br)cccc2n1Cc1ccc(-c2ccccc2C(N)=O)cc1,,,,20.8%,Insoluble,inactive,< 20%,inactive,21.4%,Non-Toxic,Non-Toxic,Non-Toxic,Active,62 - 78%,Dose-dependent effect,Soluble

# From ChEMBL document CHEMBL4373734, “Overcoming imatinib resistance in chronic myelogenous leukemia cells using non-cytotoxic cell death modulators” (Eur J Med Chem, 2020)
